Measurements taken from the supplement of paper PMC4862054.
“And” between values parts separate entries of the source, which are not always exact repeats. Identical values can stand only once.

Key:
Settings in all cases: incubation time: 72 h
MDA-MB-453 [1] = assay: normalised viability (% of control), CellTiter-Blue; higher = more viable cells (about 100 = DMSO control)
Protocol: (§1)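 DSRT, CellTiter-Blue viability, 72 h incubation. Signal is normalised to DMSO and benzethonium chloride controls. Value is the normalised response at dose 6.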

CAL-51 [2] = assay: as above
Protocol: as §1

HDQ-P1 [3] = assay: as above
Protocol: as §1

CAL-148 [4] = assay: as above
Protocol: as §1

CAL-85-1 [5] = assay: as above
Protocol: as §1

DU-4475 [6] = assay: as above
Protocol: as §1

MDA-MB-453 [7] = assay: as above; remark: listed apart in the source
Protocol: (§2)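 DSRT, CellTiter-Blue viability, 72 h incubation. Signal is normalised to DMSO and benzethonium chloride controls. Value is the normalised response at dose 8.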

CAL-51 [8] = assay: as above; remark: listed apart in the source
Protocol: as §2

HDQ-P1 [9] = assay: as above; remark: listed apart in the source
Protocol: as §2

CAL-148 [10] = assay: as above; remark: listed apart in the source
Protocol: as §2

CAL-85-1 [11] = assay: as above; remark: listed apart in the source
Protocol: as §2

MFM-223 [12] = assay: normalised response (% of control), CellTox Green; higher = less cell death (100 = DMSO, 0 = benzethonium chloride kill control)
Method in brief: (§3)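 Normalised signals at single concentrations make up the values. They come from breast cancer cell lines seeded (20 µl suspension) into 384-well plates with compound at 5 concentrations in 10-fold steps over a compound-specific 10,000-fold range, incubated 72 h, and read for CellTox Green fluorescence then CellTiter-Glo luminescence. Each plate was normalised to 0.1 % DMSO (100) and a positive kill control (0).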

MDA-MB-453 [13] = assay: as above
Method in brief: as §3

BT-549 [14] = assay: as above
Method in brief: as §3

Hs578T [15] = assay: as above
Method in brief: as §3

CAL-51 [16] = assay: as above
Method in brief: as §3

HDQ-P1 [17] = assay: as above
Method in brief: as §3

HCC1143 [18] = assay: as above
Method in brief: as §3

MCF-10A [19] = assay: as above
Method in brief: as §3

CAL-148 [20] = assay: as above
Method in brief: as §3

CAL-85-1 [21] = assay: as above
Method in brief: as §3

HCC1599 [22] = assay: as above
Method in brief: as §3

DU-4475 [23] = assay: as above
Method in brief: as §3

MDA-MB-231 [24] = assay: as above
Method in brief: as §3

CAL-120 [25] = assay: as above
Method in brief: as §3

BT-474 [26] = assay: as above
Method in brief: as §3

MDA-MB-468 [27] = assay: as above
Method in brief: as §3

HCC1937 [28] = assay: as above
Method in brief: as §3

MDA-MB-436 [29] = assay: as above
Method in brief: as §3

MFM-223 [30] = assay: normalised response (% of control), CellTiter-Glo; higher = more viable cells (100 = DMSO, 0 = benzethonium chloride kill control)
Protocol: (§4)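 DSRT, 72 h incubation, CellTox Green / CellTiter-Glo readout. Signal is normalised to DMSO and benzethonium chloride controls. Value is the normalised response at the highest dose.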

MDA-MB-453 [31] = assay: as above
Protocol: as §4

BT-549 [32] = assay: as above
Protocol: as §4

SK-BR-3 = assay: as above
Protocol: as §4

Hs578T [33] = assay: as above
Protocol: as §4

CAL-51 [34] = assay: as above
Protocol: as §4

HDQ-P1 [35] = assay: as above
Protocol: as §4

HCC1143 [36] = assay: as above
Protocol: as §4

MCF-10A [37] = assay: as above
Protocol: as §4

CAL-148 [38] = assay: as above
Protocol: as §4

CAL-85-1 [39] = assay: as above
Protocol: as §4

HCC1599 [40] = assay: as above
Protocol: as §4

DU-4475 [41] = assay: as above
Protocol: as §4

MDA-MB-231 [42] = assay: as above
Protocol: as §4

CAL-120 [43] = assay: as above
Protocol: as §4

BT-474 [44] = assay: as above
Protocol: as §4

MDA-MB-468 [45] = assay: as above
Protocol: as §4

HCC1937 [46] = assay: as above
Protocol: as §4

MDA-MB-436 [47] = assay: as above
Protocol: as §4

## O=C(c1cc(Cc2n[nH]c(=O)c3ccccc23)ccc1F)N1CCN(C(=O)C2CC2)CC1 [Olaparib] (300 nM)
MDA-MB-453 [1]
  normalised viability: 98%
CAL-51 [2]
  normalised viability: 93.2%
HDQ-P1 [3]
  normalised viability: 73.9%
CAL-148 [4]
  normalised viability: 85.3%
CAL-85-1 [5]
  normalised viability: 92.2%
DU-4475 [6]
  normalised viability: 83.2%

## Cn1nnc2c(C(N)=O)ncn2c1=O [Temozolomide] (300 nM)
MDA-MB-453 [1]
  normalised viability: 93.8%
CAL-51 [2]
  normalised viability: 88.4%
HDQ-P1 [3]
  normalised viability: 72.5%
CAL-148 [4]
  normalised viability: 89.2%
CAL-85-1 [5]
  normalised viability: 104%
DU-4475 [6]
  normalised viability: 116%

## NC1(c2ccc(-c3nc4ccn5c(=O)[nH]nc5c4cc3-c3ccccc3)cc2)CCC1 [MK-2206] (30 nM)
MDA-MB-453 [1]
  normalised viability: 99.4%
CAL-51 [2]
  normalised viability: 101%
HDQ-P1 [3]
  normalised viability: 69.6%
CAL-148 [4]
  normalised viability: 97.4%
CAL-85-1 [5]
  normalised viability: 96.2%
DU-4475 [6]
  normalised viability: 103%

## CCCCCOC(=O)Nc1nc(=O)n([C@@H]2O[C@H](C)[C@@H](O)[C@H]2O)cc1F [Capecitabine] (3000 nM)
MDA-MB-453 [7]
  normalised viability: 95.7% and 93.7%
CAL-51 [8]
  normalised viability: 109% and 96%
HDQ-P1 [9]
  normalised viability: 89.4% and 86.4%
CAL-148 [10]
  normalised viability: 98.8% and 92.8%
CAL-85-1 [11]
  normalised viability: 82.3% and 95.4%

## CN1CCc2c(c3ccccc3n2Cc2ccc(C(=O)NO)cc2)C1 [Tubastatin A] (10000 nM)
MFM-223 [12]
  normalised response: 84.2%
MDA-MB-453 [13]
  normalised response: 91.3%
BT-549 [14]
  normalised response: 87.1%
Hs578T [15]
  normalised response: 122%
CAL-51 [16]
  normalised response: -14.9%
HDQ-P1 [17]
  normalised response: 106%
HCC1143 [18]
  normalised response: 55.3%
MCF-10A [19]
  normalised response: 99.6%
CAL-148 [20]
  normalised response: 80.1%
CAL-85-1 [21]
  normalised response: 80.3%
HCC1599 [22]
  normalised response: 90.1%
DU-4475 [23]
  normalised response: 93.7%
MDA-MB-231 [24]
  normalised response: 49.3%
CAL-120 [25]
  normalised response: 99.3%
BT-474 [26]
  normalised response: 86.9%
MDA-MB-468 [27]
  normalised response: 41.7%
HCC1937 [28]
  normalised response: 61.3%
MDA-MB-436 [29]
  normalised response: 79.8%
MFM-223 [30]
  normalised response: 87%
MDA-MB-453 [31]
  normalised response: 57.4%
BT-549 [32]
  normalised response: 75%
SK-BR-3
  normalised response: 42.2%
Hs578T [33]
  normalised response: 87.9%
CAL-51 [34]
  normalised response: 39.3%
HDQ-P1 [35]
  normalised response: 73.3%
HCC1143 [36]
  normalised response: 47.1%
MCF-10A [37]
  normalised response: 98.5%
CAL-148 [38]
  normalised response: 77.3%
CAL-85-1 [39]
  normalised response: 72.5%
HCC1599 [40]
  normalised response: 85.3%
DU-4475 [41]
  normalised response: 79.9%
MDA-MB-231 [42]
  normalised response: 72%
CAL-120 [43]
  normalised response: 84.1%
BT-474 [44]
  normalised response: 75.4%
MDA-MB-468 [45]
  normalised response: 66.4%
HCC1937 [46]
  normalised response: 70.1%
MDA-MB-436 [47]
  normalised response: 72.3%
